Measurements as given in the supplement of paper PMC13380429.

Tests used:
Settings in all cases: 72 h
Caco-2 [1] = assay: cell viability relative to DMSO; higher = less toxic
Calu-3 [2] = assay: as above
HepG2 [3] = assay: as above
Vero E6 [4] = assay: as above
Caco-2 [5] = assay: relative viability EC50 (midpoint between 100% and the lowest measured viability); higher = less toxic
Calu-3 [6] = assay: as above
HepG2 [7] = assay: as above
Vero E6 [8] = assay: as above
Caco-2 [9] = assay: drug sensitivity score (DSS) for viability; higher = more toxic; extreme values may be limits of the assay
Calu-3 [10] = assay: as above
HepG2 [11] = assay: as above
Vero E6 [12] = assay: as above
U2OS [13] = assay: cell viability relative to DMSO; higher = less toxic
U2OS [14] = assay: relative viability EC50 (midpoint between 100% and the lowest measured viability); higher = less toxic
U2OS [15] = assay: drug sensitivity score (DSS) for viability; higher = more toxic; extreme values may be limits of the assay

Row | SMILES | cell viability (Caco-2 [1]; 1 nM) | cell viability (Caco-2 [1]; 10 nM) | cell viability (Caco-2 [1]; 100 nM) | cell viability (Caco-2 [1]; 1000 nM) | cell viability (Caco-2 [1]; 10000 nM) | cell viability (Calu-3 [2]; 1 nM) | cell viability (Calu-3 [2]; 10 nM) | cell viability (Calu-3 [2]; 100 nM) | cell viability (Calu-3 [2]; 1000 nM) | cell viability (Calu-3 [2]; 10000 nM) | cell viability (HepG2 [3]; 1 nM) | cell viability (HepG2 [3]; 10 nM) | cell viability (HepG2 [3]; 100 nM) | cell viability (HepG2 [3]; 1000 nM) | cell viability (HepG2 [3]; 10000 nM) | cell viability (Vero E6 [4]; 1 nM) | cell viability (Vero E6 [4]; 10 nM) | cell viability (Vero E6 [4]; 100 nM) | cell viability (Vero E6 [4]; 1000 nM) | cell viability (Vero E6 [4]; 10000 nM) | relative viability EC50 (Caco-2 [5]) | relative viability EC50 (Calu-3 [6]) | relative viability EC50 (HepG2 [7]) | relative viability EC50 (Vero E6 [8]) | drug sensitivity score (Caco-2 [9]) | drug sensitivity score (Calu-3 [10]) | drug sensitivity score (HepG2 [11]) | drug sensitivity score (Vero E6 [12]) | cell viability (U2OS [13]; 1 nM) | cell viability (U2OS [13]; 10 nM) | cell viability (U2OS [13]; 100 nM) | cell viability (U2OS [13]; 1000 nM) | cell viability (U2OS [13]; 10000 nM) | relative viability EC50 (U2OS [14]) | drug sensitivity score (U2OS [15])
1 | CN1CCN(c2ccc(C(=O)Nc3n[nH]c4ccc(Cc5cc(F)cc(F)c5)cc34)c(NC3CCOCC3)c2)CC1 [entrectinib] | 98.7% | 97% | 100% | 81.2% | 5.3% | 96.7% | 95.8% | 98.5% | 76.9% | 1.7% | 104% | 100% | 102% | 71.9% | 0.1% | 98.5% | 101% | 99.4% | 80.5% | 0.3% | 1.74 µM | 1.6 µM | 1.45 µM | 1.76 µM | 8.3 | 9 | 9.7 | 8.7 | – | – | – | – | – | – | –
2 | O=C(Nc1cc(-c2ccccc2)nn1-c1ccccc1F)c1ccc([N+](=O)[O-])cc1 [VU1545] | – | – | – | – | – | 101% | 97.7% | 92.9% | 98% | 87.5% | 107% | 83.9% | 104% | 89.6% | 97.5% | 111% | 105% | 107% | 108% | 99.9% | – | > 10 µM | > 10 µM | > 10 µM | – | 0 | 0 | 0 | – | – | – | – | – | – | –
3 | O=C1OCCN1/N=C/c1ccc([N+](=O)[O-])o1 [furazolidone] | 101% | 90.2% | 95.6% | 93.6% | 86.1% | 111% | 97.6% | 100% | 101% | 110% | 99.3% | 104% | 102% | 111% | 70.5% | 106% | 97.8% | 105% | 98.2% | 97.4% | > 10 µM | > 10 µM | – | > 10 µM | 0.1 | 0 | 0.8 | 0 | 101% | 93.2% | 97.1% | 96.6% | 96.5% | > 10 µM | 0
4 | Fc1ccc(C(OCCN2CCN(C/C=C/c3ccccc3)CC2)c2ccc(F)cc2)cc1 | 102% | 100% | 104% | 94.2% | 83.5% | 97.8% | 106% | 110% | 99.7% | 95.3% | 87.6% | 101% | 101% | 96.2% | 72.1% | 99.6% | 106% | 101% | 96% | 86.7% | > 10 µM | > 10 µM | – | > 10 µM | 0.9 | 0 | 1.8 | 0.4 | 103% | 100% | 103% | 98.4% | 94.8% | > 10 µM | 0
5 | COc1ccccc1N1CCN(CCN(C(=O)C2CCCCC2)c2ccccn2)CC1 | 99.1% | 101% | 93.5% | 102% | 94% | 93.6% | 86.7% | 99% | 92.2% | 84.3% | – | – | – | – | – | 104% | 102% | 104% | 97.2% | 99.1% | > 10 µM | > 10 µM | – | > 10 µM | 0 | 0 | – | 0 | 95.6% | 99.6% | 102% | 100% | 95.5% | > 10 µM | 0
6 | NC(=O)NCCN1CCN(c2cccc(C(F)(F)F)c2)CC1 [fluprazine] | 107% | 86.5% | 85.3% | 96.8% | 72.3% | 105% | 97.6% | 101% | 91.7% | 99.5% | 93.3% | 112% | 110% | 97.7% | 109% | 103% | 99.5% | 110% | 110% | 104% | – | > 10 µM | > 10 µM | > 10 µM | 2 | 0 | 0 | 0 | 102% | 103% | 94.3% | 101% | 99.9% | > 10 µM | 0
7 | O=C1C=CC(=O)C2=C1C1c3ccccc3C2c2ccccc21 [INCA-6] | 97.5% | 93.5% | 94.5% | 96.6% | 90.1% | 98.2% | 99.3% | 96.7% | 95.7% | 104% | 102% | 112% | 96.8% | 106% | 68.5% | 93.3% | 96.7% | 87% | 96.1% | 105% | > 10 µM | > 10 µM | – | > 10 µM | 0 | 0 | 1.1 | 0 | 98% | 93.7% | 98.2% | 97.5% | 88.2% | > 10 µM | 0
8 | CNC(=O)c1c(F)cccc1Nc1nc(Nc2cc3c(cc2OC)CCN3C(=O)CN(C)C)nc2[nH]ccc12 | 103% | 93.4% | 92.3% | 85.7% | 52.8% | 99.4% | 104% | 103% | 95.1% | 91.3% | 100% | 101% | 77.3% | 53% | 56.5% | 101% | 97% | 94.1% | 93.4% | 101% | – | > 10 µM | – | > 10 µM | 4.1 | 0 | 11.5 | 0 | 97.7% | 98.9% | 100% | 87.9% | 78.5% | > 10 µM | 2
9 | CC(C)(Sc1cc(C(C)(C)C)c(O)c(C(C)(C)C)c1)Sc1cc(C(C)(C)C)c(O)c(C(C)(C)C)c1 [probucol] | 104% | 96.3% | 106% | 102% | 102% | 98.6% | 106% | 99.9% | 103% | 96% | – | – | – | – | – | 100% | 101% | 106% | 98.1% | 97.8% | > 10 µM | > 10 µM | – | > 10 µM | 0 | 0 | – | 0 | 104% | 96.1% | 101% | 96.2% | 98.7% | > 10 µM | 0
10 | Cc1ccsc1/C=C/C1=NCCCN1C [morantel] | 94.6% | 86% | 72.7% | 94.6% | 84.2% | 94.5% | 111% | 91.1% | 101% | 96.9% | – | – | – | – | – | 108% | 104% | 110% | 101% | 96.8% | > 10 µM | > 10 µM | – | > 10 µM | 0 | 0 | – | 0 | 98.2% | 104% | 97.2% | 100% | 96.9% | > 10 µM | 0
11 | COc1ccc(-n2[nH]c3c4c(ncc3c2=O)CCCCC4)cc1 | 99.9% | 107% | 95.7% | 107% | 94.2% | 110% | 98.7% | 99.8% | 97.2% | 112% | – | – | – | – | – | 102% | 105% | 100% | 98.2% | 99.6% | > 10 µM | > 10 µM | – | > 10 µM | 0 | 0 | – | 0 | 96.4% | 100% | 94.2% | 103% | 95.9% | > 10 µM | 0
12 | Cc1ccc(S(=O)(=O)Nc2ccc3c(c2)c(C(=O)C(F)(F)F)cn3CC(=O)N[C@@H](CC(C)C)C(=O)O)cc1 [NTRC-824] | 94.7% | 103% | 95% | 102% | 89.7% | 88.4% | 101% | 94.2% | 102% | 93.5% | – | – | – | – | – | 96.9% | 98.1% | 100% | 94.7% | 95.4% | > 10 µM | > 10 µM | – | > 10 µM | 0 | 0 | – | 0 | 102% | 109% | 102% | 102% | 95.3% | > 10 µM | 0
13 | Cc1ccc(C(=O)N(CCCN)[C@@H](c2nc3cc(Cl)ccc3c(=O)n2Cc2ccccc2)C(C)C)cc1 [ispinesib] | 93.7% | 81.5% | 68.8% | 64% | 63.1% | 97.3% | 88.5% | 90.8% | 90% | 5.4% | 98.7% | 55.8% | 38.7% | 40% | 18.8% | 103% | 94% | 42.4% | 40.8% | 38.1% | – | 2.29 µM | 0.0173 µM | 0.029 µM | 12.1 | 6.9 | 25.4 | 19.5 | 104% | 92.1% | 47.6% | 43.2% | 31.3% | 0.0446 µM | 19.4
14 | Cc1cccc(C)c1NC(=O)CN1CCN(CCCC(c2ccc(F)cc2)c2ccc(F)cc2)CC1 [lidoflazine] | 83.7% | 99.5% | 84.9% | 105% | 68.2% | 106% | 113% | 112% | 102% | 88.4% | 99.5% | 109% | 108% | 96.2% | 80.9% | 117% | 106% | 102% | 98.2% | 87.4% | – | > 10 µM | > 10 µM | > 10 µM | 1.1 | 0 | 1 | 0.2 | 105% | 103% | 101% | 107% | 92.7% | > 10 µM | 0
15 | COc1cccc(-c2cc(=O)c3ccccc3o2)c1N | 98.5% | 108% | 92.7% | 95.9% | 91.4% | 107% | 103% | 103% | 106% | 83.7% | 99.7% | 87.8% | 94.1% | 91.8% | 64.2% | 109% | 108% | 105% | 104% | 92% | > 10 µM | > 10 µM | – | > 10 µM | 0 | 0.2 | 2.9 | 0 | 99.5% | 97.7% | 98.7% | 101% | 92% | > 10 µM | 0
